According to article PMC11747885, “Potent inhibitors of the human RNA ligase Rlig1 highlights its role in RNA integrity maintenance under oxidative cellular stress” (Chemical Science, 2025):

Target: T1, Rlig1-AMP (Homo sapiens, UniProt Q8N999)
T1 construct: made in house; host or cells: E. coli BL21 (DE3), pET15b-Rlig1
Experiment: FRET-based high-throughput screening of inhibitors for Rlig1-AMP
Type: biochemical
Conditions: for Raw data [w Enyzm]: with enzyme; for Raw data [w/o Enzym]: without enzyme

[1] = sheet HTS hits, MedChemExpress library
[2] = sheet HTS hits, difference of raw data w/o and w enzyme
[3] = HTS hits, difference of raw data w/o and w enzyme
[4] = HTS hits, normalised value of 1-D Distance
[5] = HTS hits, MedChemExpress library
[6] = HTS hits, difference of raw data without and with enzyme
[7] = HTS hits, normalized value (npi)

T1 sequence (Q8N999 whole entry): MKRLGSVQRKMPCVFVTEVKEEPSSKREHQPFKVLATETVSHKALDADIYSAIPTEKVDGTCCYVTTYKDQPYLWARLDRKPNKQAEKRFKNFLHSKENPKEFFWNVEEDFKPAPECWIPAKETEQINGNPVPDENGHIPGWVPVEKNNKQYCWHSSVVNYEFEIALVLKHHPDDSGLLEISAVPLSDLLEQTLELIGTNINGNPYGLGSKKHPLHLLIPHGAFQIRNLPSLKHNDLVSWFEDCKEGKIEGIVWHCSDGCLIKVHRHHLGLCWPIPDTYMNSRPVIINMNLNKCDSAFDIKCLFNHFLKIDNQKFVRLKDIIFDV

Row | Compound | 1-D Distance.npi [1] | 1-D Distance [2] | Raw data [w Enyzm] (sheet HTS hits) | Raw data [w/o Enzym] (sheet HTS hits) | 1-D Distance [3] | Raw data [w Enyzm] (HTS hits) | Raw data [w/o Enzym] (HTS hits) | also measured
1 | COc1cccc2c1C(=N)c1c(O)c3c(c(O)c1C2=O)C[C@@](O)(C(C)=O)C[C@@H]3O[C@H]1C[C@H](N)[C@H](O)[C@H](C)O1.Cl [5-Iminodaunorubicin (hydrochloride)] | 90.1534 | 802 | 2925 | 3727 | – | – | – | –
2 | COc1cccc2c1C(=N)c1c(O)c3c(c(O)c1C2=O)C[C@@](O)(C(C)=O)C[C@@H]3O[C@H]1C[C@H](N)[C@H](O)[C@H](C)O1 [5-Iminodaunorubicin] | – | – | – | – | 1374 | 2360 | 3734 | 1-D Distance.npi [4]: 80.0753
3 | CN(C)CCSSCCNC(=O)C1CCN(C(=O)CSc2ccc(Cl)cc2)CC1.O=C(O)C(F)(F)F [6H05 (TFA)] | – | – | – | – | 1774 | 8996 | 10770 | 1-D Distance.npi [4]: 75.4127
4 | CC(C)=CC[C@H](O)C1=CC(=O)c2c(O)ccc(O)c2C1=O [(-)-Alkannin] | – | – | – | – | – | 3885 | – | 1-D Distance.npi [5]: 70.9637; 1-D Distance [6]: 1812
5 | Cc1ncsc1-c1ccc(CNC(=O)[C@@H]2C[C@@H](O)CN2C(=O)[C@@H](NC(=O)CCN)C(C)(C)C)cc1.Cl.Cl [(S,R,S)-AHPC-C2-NH2 (dihydrochloride)] | 76.891 | 1672 | 9239 | 10911 | – | – | – | –
6 | CCCCCCCCCCCCCCCC(=O)NCCCC[C@@H](N)C(=O)NCCCNCCCCNCCCN.Cl.Cl.Cl.Cl [AMXT-1501 tetrahydrochloride] | – | – | – | – | 45 | 4942 | 4897 | 1-D Distance.npi [7]: 103.958
7 | O=C(O)c1ccc(-c2ccc(N(c3ccc(-c4ccc(C(=O)O)cc4)cc3)c3ccc(-c4ccc(C(=O)O)cc4)cc3)cc2)cc1 [Antibacterial agent 18] | – | – | – | – | – | 12110 | 13337 | 1-D Distance.npi [5]: 80.2581; 1-D Distance [6]: 1227
8 | CN1CCC=C(C(=O)O)C1 [Arecaidine] | – | – | – | – | 1949 | 8786 | 10735 | 1-D Distance.npi [4]: 71.9903
9 | C=C1C(=O)O[C@@H]2[C@H]3C(C)=CC[C@@]34O[C@@]4(C)CC[C@@H]12 [Arglabin] | – | – | – | – | 1673 | 8885 | 10558 | –
10 | CC(=O)Nc1cc(Oc2ccc3c(C(=O)Nc4ccc(CN5CCN(C)CC5)c(C(F)(F)F)c4)cccc3c2)ncn1 [BGG463] | – | – | – | – | 797 | 8276 | 9073 | 1-D Distance.npi [7]: 93.5609
11 | C[n+]1ccc(/C=C/c2ccc3c(c2)c2cc(/C=C/c4cc[n+](C)cc4)ccc2n3CCOCCOCCOCC[N+]2(C)CCCCC2)cc1.[I-].[I-].[I-] [BMVC-8C3O] | – | – | – | – | 496 | 3841 | 4337 | 1-D Distance.npi [7]: 99.5333
12 | O=c1[nH]c(=O)c2ccccc2[nH]1 [Benzoyleneurea] | – | – | – | – | – | 9137 | 11028 | 1-D Distance.npi [5]: 70.2932; 1-D Distance [6]: 1891
13 | O=C(O)CCCN1CCC(O[C@@H](c2ccc(Cl)cc2)c2ccccn2)CC1.O=S(=O)(O)c1ccccc1 [Bepotastine (besilate)] | 70.3956 | 1900 | 8762 | 10662 | – | – | – | –
14 | C#CCOCCOCCOCCOCC#C [Bis-propargyl-PEG3] | 78.8376 | 1567 | 9208 | 10775 | – | – | – | –
15 | CN(C)c1ccc(Nc2c3ccc(NC(=O)CCN4CCCC4)cc3nc3cc(NC(=O)CCN4CCCC4)ccc23)cc1.Cl.Cl.Cl [Braco-19 (trihydrochloride)] | – | – | – | – | 99 | 2490 | 2391 | 1-D Distance.npi [4]: 102.921
16 | CC(=O)Nc1ccc(S(=O)(=O)[O-])c2cc(S(=O)(=O)[O-])c(N=Nc3ccc(N=Nc4ccc(S(=O)(=O)[O-])cc4)c4ccc(S(=O)(=O)[O-])cc34)c(O)c12.[Na+].[Na+].[Na+].[Na+] [Brilliant Black BN] | – | – | – | – | – | 1620 | 1348 | 1-D Distance.npi [5]: 98.2105; 1-D Distance [6]: 272
17 | CC(C)(C)OC(=O)CCOCCBr [Bromo-PEG1-C2-Boc] | 72.9978 | 1882 | 9154 | 11036 | – | – | – | –
18 | CC(/C=C/C=C(\C)C(=O)O[C@@H]1O[C@H](CO[C@@H]2O[C@H](CO)[C@@H](O)[C@H](O)[C@H]2O)[C@@H](O)[C@H](O)[C@H]1O)=C\C=C\C=C(C)\C=C\C=C(/C)C(=O)O[C@@H]1O[C@H](CO[C@@H]2O[C@H](CO)[C@@H](O)[C@H](O)[C@H]2O)[C@@H](O)[C@H](O)[C@H]1O [Crocin] | – | – | – | – | – | 2370 | 3763 | 1-D Distance [6]: 1393
19 | COc1cccc2c1C(=O)c1c(O)c3c(c(O)c1C2=O)C[C@@](O)(C(C)=O)C[C@@H]3O[C@H]1C[C@H](NC(=O)OCc2ccc(O[C@@H]3O[C@H](CO)[C@H](O)[C@H](O)[C@H]3O)c([N+](=O)[O-])c2)[C@H](O)[C@H](C)O1 [Daun02] | – | – | – | – | 1434 | 2111 | 3545 | 1-D Distance.npi [7]: 83.3585
20 | Cc1cccc2c3c(ccc12)C(=O)C1=C(OCC1C)C3=O (centres unmarked) [Dihydroisotanshinone I] | 72.3395 | 1938 | 11164 | 13102 | – | – | – | –
21 | CC1=NN(c2ccc(C)c(C)c2)C(=O)/C1=N\Nc1cccc(-c2cccc(C(=O)O)c2)c1O.NCCO.NCCO [Eltrombopag (Olamine)] | 92.4928 | 680 | 3683 | 4363 | – | – | – | –
22 | COc1cccc2c1C(=O)c1c(O)c3c(c(O)c1C2=O)C[C@@](O)(C(=O)CO)C[C@@H]3O[C@H]1C[C@H](N)[C@@H](O)[C@H](C)O1.Cl [Epirubicin (hydrochloride)] | – | – | – | – | – | 1246 | – | 1-D Distance.npi [5]: 99.0682; 1-D Distance [6]: 316
23 | CC(=O)O[C@H]1C[C@@]2(C)[C@@H](C[C@@H](O)[C@H]3[C@@]4(C)CC[C@@H](O)[C@@H](C)[C@@H]4CC[C@@]32C)/C1=C(\CCC=C(C)C)C(=O)[O-].[Na+] [Fusidic acid (sodium salt)] | 75.4657 | 1636 | 9299 | 10935 | – | – | – | –
24 | C=CC1=C(C)c2cc3[n-]c(cc4nc(cc5[n-]c(cc1n2)c(C)c5C=C)C(C)=C4CCC(=O)O)c(CCC(=O)O)c3C.[Cl-].[Fe+3] [Hemin] | 76.0753 | 1716 | 4406 | 6122 | – | – | – | –
25 | C/C1=C2/[N-]C([C@H](CC(N)=O)[C@@]2(C)CCC(=O)NC[C@@H](C)OP(=O)([O-])O[C@H]2[C@@H](O)[C@@H](n3cnc4cc(C)c(C)cc43)O[C@@H]2CO)[C@]2(C)N=C(/C(C)=C3N=C(/C=C4N=C1[C@@H](CCC(N)=O)C\4(C)C)[C@@H](CCC(N)=O)[C@]\3(C)CC(N)=O)[C@@H](CCC(N)=O)[C@]2(C)CC(N)=O.CC(=O)[O-].[Co+3] [Hydroxocobalamin (acetate)] | – | – | – | – | – | 4827 | 6279 | 1-D Distance.npi [5]: 78.9236; 1-D Distance [6]: 1452
26 | C/C1=C2N=C(/C=C3N=C(/C(C)=C4\[N-]C(C(CC(N)=O)C4(C)CCC(=O)NCC(C)OP(=O)([O-])OC4C(CO)OC(n5cnc6cc(C)c(C)cc65)C4O)C4(C)N=C1C(CCC(N)=O)C4(C)CC(N)=O)C(CCC(N)=O)C\3(C)C)C(CCC(N)=O)C/2(C)CC(N)=O.Cl.[Co+3].[OH-] (centres unmarked) [Hydroxocobalamin (monohydrochloride)] | 101.9 | 179 | 5221 | 5042 | – | – | – | –
27 | COc1c2c3c4c(c(OC)c(=O)c5c(O)cc(OC)c(c6c(OC)cc(O)c(c1=O)c63)c54)[C@@H](C(C)=O)[C@@](C)(O)C2 [Hypocrellin A] | – | – | – | – | 1179 | 1866 | 3045 | –
28 | CC(=O)[C@]1(O)Cc2c(O)c3c(c(O)c2[C@@H](O[C@H]2C[C@H](N)[C@H](O)[C@H](C)O2)C1)C(=O)c1ccccc1C3=O.Cl [Idarubicin (hydrochloride)] | – | – | – | – | – | 5823 | 7545 | 1-D Distance.npi [5]: 74.8199; 1-D Distance [6]: 1722
